Results reported in PMC8213057, “Targeting ALK2: An Open Science Approach to Developing Therapeutics for the Treatment of Diffuse Intrinsic Pontine Glioma” (Journal of Medicinal Chemistry, 2020).

How the values were obtained:
TGFBR2 = biological target: T1, TGFBR2 (Homo sapiens, UniProt P37173); experiment: 375-member kinase panel; type: biochemical; conditions: Run 1, Run 2; for % enzyme activity: 1 μM; for remaining activity at 1 µM: read-out: % enzyme activity, 1 μM
T1 construct: purchased Reaction Biology Corporation

CLK3 = CLK3 (Homo sapiens, UniProt P49761); conditions: 1 μM; Run 1, Run 2
EPHA5 = EPHA5 (Homo sapiens, UniProt P54756); conditions: 1 μM; Run 1, Run 2
STK38L/NDR2 = STK38L/NDR2 (Homo sapiens, UniProt Q9Y2H1); conditions: 1 μM; Run 1, Run 2
DYRK3 = biological target: T2, DYRK3 (Homo sapiens, UniProt O43781); experiment: biochemical; conditions: read-out: % enzyme activity, 1 μM; Run 1, Run 2
T2 sequence (O43781 1-588): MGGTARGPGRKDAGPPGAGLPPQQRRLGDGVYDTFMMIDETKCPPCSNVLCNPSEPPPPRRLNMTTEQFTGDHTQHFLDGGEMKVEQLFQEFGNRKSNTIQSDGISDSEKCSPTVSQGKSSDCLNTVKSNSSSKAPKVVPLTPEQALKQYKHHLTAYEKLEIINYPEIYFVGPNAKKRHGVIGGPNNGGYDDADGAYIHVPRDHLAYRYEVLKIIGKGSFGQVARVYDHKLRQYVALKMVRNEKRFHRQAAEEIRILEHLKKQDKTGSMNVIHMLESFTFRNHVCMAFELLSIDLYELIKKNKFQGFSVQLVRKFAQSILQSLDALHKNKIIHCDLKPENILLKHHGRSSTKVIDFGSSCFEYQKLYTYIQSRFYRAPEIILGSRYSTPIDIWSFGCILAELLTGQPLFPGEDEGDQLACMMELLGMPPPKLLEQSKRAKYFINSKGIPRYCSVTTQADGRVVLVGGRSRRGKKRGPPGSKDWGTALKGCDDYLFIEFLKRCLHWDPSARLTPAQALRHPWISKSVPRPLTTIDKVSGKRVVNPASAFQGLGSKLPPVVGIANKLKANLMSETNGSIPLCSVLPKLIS

ERN1/IRE1 = ERN1/IRE1 (Homo sapiens, UniProt O75460); experiment: biochemical; conditions: read-out: % enzyme activity, 1 μM; Run 1, Run 2
PKCepsilon = biological target: T3, PKCepsilon (Homo sapiens, UniProt Q02156); experiment: biochemical; conditions: read-out: % enzyme activity, 1 μM; Run 1, Run 2
T3 sequence (Q02156 1-737): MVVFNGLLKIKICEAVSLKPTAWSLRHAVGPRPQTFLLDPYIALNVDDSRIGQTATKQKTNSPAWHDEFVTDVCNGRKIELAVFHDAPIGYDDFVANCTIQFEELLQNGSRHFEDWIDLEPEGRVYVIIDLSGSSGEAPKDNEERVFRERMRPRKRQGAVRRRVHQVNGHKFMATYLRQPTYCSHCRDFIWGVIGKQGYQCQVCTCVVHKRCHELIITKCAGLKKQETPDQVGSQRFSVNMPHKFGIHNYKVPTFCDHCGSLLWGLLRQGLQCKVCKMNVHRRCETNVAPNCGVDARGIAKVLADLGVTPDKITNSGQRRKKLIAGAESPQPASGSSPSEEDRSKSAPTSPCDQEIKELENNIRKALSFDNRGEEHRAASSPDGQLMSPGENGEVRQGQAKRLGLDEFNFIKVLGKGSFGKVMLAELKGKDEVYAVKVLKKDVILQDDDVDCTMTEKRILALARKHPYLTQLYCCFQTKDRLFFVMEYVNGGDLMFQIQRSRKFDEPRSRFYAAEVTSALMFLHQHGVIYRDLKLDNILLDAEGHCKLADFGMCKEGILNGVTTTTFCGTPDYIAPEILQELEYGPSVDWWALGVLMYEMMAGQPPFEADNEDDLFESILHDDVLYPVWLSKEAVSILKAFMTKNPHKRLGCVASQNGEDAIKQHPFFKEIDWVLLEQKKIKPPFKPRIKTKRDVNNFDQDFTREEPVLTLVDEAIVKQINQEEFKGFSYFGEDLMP

PKN3/PRK3 = PKN3/PRK3 (Homo sapiens, UniProt Q6P5Z2); experiment: biochemical; conditions: read-out: % enzyme activity, 1 μM; Run 1, Run 2
PRKX = biological target: T4, PRKX (Homo sapiens, UniProt P51817); experiment: biochemical; conditions: read-out: % enzyme activity, 1 μM; Run 1, Run 2
T4 sequence (P51817 1-358): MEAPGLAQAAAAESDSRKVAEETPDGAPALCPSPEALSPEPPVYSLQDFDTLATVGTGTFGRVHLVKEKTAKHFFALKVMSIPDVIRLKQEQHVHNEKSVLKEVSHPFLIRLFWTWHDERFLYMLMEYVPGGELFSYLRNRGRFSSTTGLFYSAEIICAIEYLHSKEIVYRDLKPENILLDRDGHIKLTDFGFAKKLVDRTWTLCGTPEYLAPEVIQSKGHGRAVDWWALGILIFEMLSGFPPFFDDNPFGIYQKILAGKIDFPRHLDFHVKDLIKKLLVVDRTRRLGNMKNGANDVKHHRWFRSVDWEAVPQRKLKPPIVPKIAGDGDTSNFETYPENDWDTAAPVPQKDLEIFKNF

TRKB = TRKB (Homo sapiens, UniProt Q16620); experiment: biochemical; conditions: read-out: % enzyme activity, 1 μM; Run 1, Run 2
TRKB, sequence (Q16620 32-822): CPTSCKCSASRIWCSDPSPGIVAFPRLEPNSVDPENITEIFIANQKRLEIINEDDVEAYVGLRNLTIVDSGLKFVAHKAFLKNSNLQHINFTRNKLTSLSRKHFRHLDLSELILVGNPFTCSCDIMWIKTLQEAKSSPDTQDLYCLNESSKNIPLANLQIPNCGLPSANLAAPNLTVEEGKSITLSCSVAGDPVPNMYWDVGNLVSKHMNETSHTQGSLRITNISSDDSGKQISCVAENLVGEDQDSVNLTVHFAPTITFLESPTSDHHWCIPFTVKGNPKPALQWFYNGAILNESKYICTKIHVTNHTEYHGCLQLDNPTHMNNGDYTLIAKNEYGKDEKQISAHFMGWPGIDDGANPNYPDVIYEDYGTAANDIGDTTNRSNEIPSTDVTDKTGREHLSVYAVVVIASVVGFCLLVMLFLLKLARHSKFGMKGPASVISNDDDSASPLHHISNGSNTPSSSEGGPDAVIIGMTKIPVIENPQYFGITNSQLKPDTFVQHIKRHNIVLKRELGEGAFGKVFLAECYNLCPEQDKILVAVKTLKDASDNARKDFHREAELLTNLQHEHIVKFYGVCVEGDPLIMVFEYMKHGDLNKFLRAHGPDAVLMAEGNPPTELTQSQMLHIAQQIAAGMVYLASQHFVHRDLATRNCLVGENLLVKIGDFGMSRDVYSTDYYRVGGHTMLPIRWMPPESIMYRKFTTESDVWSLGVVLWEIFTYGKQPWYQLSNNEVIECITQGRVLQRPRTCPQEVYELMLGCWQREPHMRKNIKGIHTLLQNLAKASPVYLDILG

T1 sequence (P37173 23-567): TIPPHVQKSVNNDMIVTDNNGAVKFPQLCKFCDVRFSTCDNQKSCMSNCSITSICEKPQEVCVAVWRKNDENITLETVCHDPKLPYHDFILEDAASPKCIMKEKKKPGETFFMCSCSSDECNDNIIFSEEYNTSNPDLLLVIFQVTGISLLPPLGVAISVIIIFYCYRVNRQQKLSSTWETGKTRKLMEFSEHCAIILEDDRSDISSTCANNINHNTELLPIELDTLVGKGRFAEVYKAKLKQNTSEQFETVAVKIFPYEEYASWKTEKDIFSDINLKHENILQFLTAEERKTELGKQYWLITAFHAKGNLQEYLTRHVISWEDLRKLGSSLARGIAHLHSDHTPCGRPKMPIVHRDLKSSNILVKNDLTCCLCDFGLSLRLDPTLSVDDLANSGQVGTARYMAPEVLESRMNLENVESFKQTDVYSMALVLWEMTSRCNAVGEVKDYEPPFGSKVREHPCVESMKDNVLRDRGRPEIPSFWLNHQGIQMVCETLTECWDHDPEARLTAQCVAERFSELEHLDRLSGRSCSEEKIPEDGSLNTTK
ERN1/IRE1, sequence (O75460 19-977): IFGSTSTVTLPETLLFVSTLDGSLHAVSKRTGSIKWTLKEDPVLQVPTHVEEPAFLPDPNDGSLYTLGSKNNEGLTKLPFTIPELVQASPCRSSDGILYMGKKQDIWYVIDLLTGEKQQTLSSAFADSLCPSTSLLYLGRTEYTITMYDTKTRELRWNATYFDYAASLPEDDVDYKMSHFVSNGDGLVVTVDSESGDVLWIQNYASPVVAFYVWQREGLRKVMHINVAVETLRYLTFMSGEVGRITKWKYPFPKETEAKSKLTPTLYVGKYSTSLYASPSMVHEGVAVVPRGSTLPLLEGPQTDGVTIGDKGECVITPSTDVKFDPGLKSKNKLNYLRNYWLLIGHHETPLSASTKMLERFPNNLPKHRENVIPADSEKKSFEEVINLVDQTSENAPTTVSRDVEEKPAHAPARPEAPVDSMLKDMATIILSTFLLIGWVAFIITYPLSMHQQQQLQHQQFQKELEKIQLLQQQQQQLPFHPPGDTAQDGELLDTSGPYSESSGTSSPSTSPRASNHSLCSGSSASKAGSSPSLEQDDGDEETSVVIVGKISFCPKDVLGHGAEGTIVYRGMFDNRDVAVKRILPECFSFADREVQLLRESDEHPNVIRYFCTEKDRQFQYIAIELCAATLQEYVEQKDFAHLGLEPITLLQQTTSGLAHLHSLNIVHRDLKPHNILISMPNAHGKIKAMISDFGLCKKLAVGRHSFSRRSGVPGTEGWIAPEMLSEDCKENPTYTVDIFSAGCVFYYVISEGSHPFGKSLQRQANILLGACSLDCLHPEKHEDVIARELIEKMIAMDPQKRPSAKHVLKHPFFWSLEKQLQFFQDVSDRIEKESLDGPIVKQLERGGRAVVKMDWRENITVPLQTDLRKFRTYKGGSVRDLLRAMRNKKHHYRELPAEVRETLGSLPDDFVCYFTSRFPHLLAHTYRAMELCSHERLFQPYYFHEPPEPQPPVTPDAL
EPHA5, sequence (P54756 25-1037): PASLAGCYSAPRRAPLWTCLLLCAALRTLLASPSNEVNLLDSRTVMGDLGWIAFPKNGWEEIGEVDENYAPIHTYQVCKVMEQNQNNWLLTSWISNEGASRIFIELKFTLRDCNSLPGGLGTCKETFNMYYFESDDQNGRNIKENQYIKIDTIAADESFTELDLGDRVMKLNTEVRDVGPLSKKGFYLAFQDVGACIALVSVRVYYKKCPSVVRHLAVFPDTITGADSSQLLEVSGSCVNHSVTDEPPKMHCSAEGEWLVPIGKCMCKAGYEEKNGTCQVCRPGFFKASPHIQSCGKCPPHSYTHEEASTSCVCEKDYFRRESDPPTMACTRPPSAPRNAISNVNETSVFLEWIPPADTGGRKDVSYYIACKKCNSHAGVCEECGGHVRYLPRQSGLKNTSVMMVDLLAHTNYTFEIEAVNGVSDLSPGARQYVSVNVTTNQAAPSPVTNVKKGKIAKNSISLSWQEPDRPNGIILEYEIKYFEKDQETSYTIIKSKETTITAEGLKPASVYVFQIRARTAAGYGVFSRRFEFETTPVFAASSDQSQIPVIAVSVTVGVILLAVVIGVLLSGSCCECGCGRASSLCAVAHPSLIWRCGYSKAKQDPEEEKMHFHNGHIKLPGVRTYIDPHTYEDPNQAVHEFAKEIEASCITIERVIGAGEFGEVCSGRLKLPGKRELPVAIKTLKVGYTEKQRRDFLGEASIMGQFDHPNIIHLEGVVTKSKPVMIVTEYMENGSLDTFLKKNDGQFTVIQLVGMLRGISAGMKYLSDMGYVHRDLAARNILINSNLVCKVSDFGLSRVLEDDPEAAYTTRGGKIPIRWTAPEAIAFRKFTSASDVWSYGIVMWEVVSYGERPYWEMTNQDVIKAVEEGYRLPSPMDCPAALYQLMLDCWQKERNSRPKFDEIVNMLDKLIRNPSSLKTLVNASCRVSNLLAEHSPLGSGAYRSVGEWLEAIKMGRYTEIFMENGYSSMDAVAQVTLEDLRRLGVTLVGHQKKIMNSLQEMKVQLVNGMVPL
PKN3/PRK3, sequence (Q6P5Z2 whole entry): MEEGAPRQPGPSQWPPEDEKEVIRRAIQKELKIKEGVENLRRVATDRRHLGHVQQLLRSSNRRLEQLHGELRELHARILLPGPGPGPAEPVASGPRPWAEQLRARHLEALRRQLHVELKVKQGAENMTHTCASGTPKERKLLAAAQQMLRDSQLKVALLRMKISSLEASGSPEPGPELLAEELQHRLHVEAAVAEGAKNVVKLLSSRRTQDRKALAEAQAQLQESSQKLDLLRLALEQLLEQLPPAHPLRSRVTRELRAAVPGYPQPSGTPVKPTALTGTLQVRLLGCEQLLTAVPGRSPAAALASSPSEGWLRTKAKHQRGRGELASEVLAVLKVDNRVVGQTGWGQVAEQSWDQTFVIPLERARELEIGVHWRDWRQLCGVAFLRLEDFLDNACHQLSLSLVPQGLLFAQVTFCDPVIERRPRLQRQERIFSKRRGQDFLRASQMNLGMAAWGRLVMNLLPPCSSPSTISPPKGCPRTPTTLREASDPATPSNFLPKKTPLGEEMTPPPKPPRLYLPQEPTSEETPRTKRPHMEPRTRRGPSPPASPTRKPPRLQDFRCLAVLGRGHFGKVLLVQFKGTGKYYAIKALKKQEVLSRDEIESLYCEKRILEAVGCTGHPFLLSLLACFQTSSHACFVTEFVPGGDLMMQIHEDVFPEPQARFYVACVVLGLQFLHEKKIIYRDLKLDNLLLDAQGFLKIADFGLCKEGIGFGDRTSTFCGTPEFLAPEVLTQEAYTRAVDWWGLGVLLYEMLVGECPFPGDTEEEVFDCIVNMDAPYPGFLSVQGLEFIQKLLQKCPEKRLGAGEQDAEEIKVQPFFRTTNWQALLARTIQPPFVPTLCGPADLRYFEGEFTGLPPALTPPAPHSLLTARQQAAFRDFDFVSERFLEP
CLK3, sequence (P49761 whole entry): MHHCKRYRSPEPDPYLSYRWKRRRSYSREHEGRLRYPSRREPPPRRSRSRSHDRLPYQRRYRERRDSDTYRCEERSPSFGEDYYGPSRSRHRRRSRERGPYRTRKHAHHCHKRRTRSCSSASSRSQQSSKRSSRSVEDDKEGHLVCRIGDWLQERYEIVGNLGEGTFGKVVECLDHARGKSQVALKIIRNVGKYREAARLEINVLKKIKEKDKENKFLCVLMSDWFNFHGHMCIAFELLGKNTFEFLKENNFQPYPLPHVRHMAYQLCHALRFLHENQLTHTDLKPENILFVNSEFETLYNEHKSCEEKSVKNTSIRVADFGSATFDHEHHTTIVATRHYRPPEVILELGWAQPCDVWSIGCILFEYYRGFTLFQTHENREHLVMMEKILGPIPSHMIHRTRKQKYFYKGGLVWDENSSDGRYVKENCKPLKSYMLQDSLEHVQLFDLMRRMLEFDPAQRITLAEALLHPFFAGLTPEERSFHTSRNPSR

`COc1cc(-c2cncc(-c3ccc(N4CCN(C)CC4)cc3)c2C)cc(F)c1C(N)=O` [Compound 26a, 2-Fluoro-6-methoxy-4-(4-methyl-5-(4-(4-methylpiperazin-1-yl)phenyl)pyridin-3-yl)benzamide] was tested, and the “% enzyme activity” value (TGFBR2) was 97.44%, the remaining activity at 1 µM (TGFBR2) was 103% and the “% enzyme activity” value (CLK3) was 99.59%. For the same molecule, the “% enzyme activity” value (EPHA5) was 90.37%, the “% enzyme activity” value (STK38L/NDR2) was 98.69% and the remaining activity at 1 µM (DYRK3) was 90.4%. It also gave a remaining activity at 1 µM (ERN1/IRE1) of 92.8%, a remaining activity at 1 µM (PKCepsilon) of 99.8% and a remaining activity at 1 µM (PKN3/PRK3) of 95%. The remaining activity at 1 µM (PRKX) was 99.9% and the remaining activity at 1 µM (TRKB) was 100%.

For `COc1cc(-c2cncc(-c3ccc(N4C[C@@H](C)N(C)[C@@H](C)C4)cc3)c2C)cc(F)c1C(N)=O` [Compound 26c, 2-Fluoro-6-methoxy-4-(4-methyl-5-(4-((3R,5S)-3,4,5-trimethylpiperazin-1-yl)phenyl)pyridin-3-yl)benzamide], the “% enzyme activity” value (TGFBR2) was 105.33%, the remaining activity at 1 µM (TGFBR2) was 106% and the “% enzyme activity” value (CLK3) was 86.89%. The “% enzyme activity” value (EPHA5) was 90.66%, the “% enzyme activity” value (STK38L/NDR2) was 102.97% and the remaining activity at 1 µM (DYRK3) was 96%. For the same molecule, the remaining activity at 1 µM (ERN1/IRE1) was 91%, the remaining activity at 1 µM (PKCepsilon) was 106% and the remaining activity at 1 µM (PKN3/PRK3) was 98.4%. The remaining activity at 1 µM (PRKX) was 91.3% and the remaining activity at 1 µM (TRKB) was 99%.
